Tested on: Human primary T cells
Test: IL-2 ELISA, human primary T cell, anti-CD3+CD28 stimulation
Format: cell-based
Conditions: IL-2 quantified by ELISA, human primary T cells stimulated with αCD3 and αCD28, 24 hours
Description: Human primary T cell isolation and culture: Human primary T cells were prepared as follows. Whole blood was obtained from a healthy volunteer, mixed 1:1 with PBS, layered on to Ficoll Hypaque (Amersham Pharmacia Biotech, Piscataway, N.J., Catalog #17-1440-03) in 2:1 blood/PBS:ficoll ratio and centrifuged for 30 minutes at 4° C. at 1750 rpm. The cells at the serum: ficoll interface were recovered and washed twice with 5 volumes of PBS. These freshly isolated human peripheral blood mononuclear cells were cultured in Yssel's medium containing 40 U/mL IL2 in a flask pre-coated with 1 μg/mL αCD3 and 5 μg/mL αCD28 (Anti-Human CD3, BD Pharmingen Catalog #555336, Anti-Human CD28, Beckman Coulter Catalog #IM1376). The cells were stimulated for 3-4 days, then transferred to a fresh flask and maintained in RPMI (RPMI-1640 with L-Glutamine; Mediatech, Inc., Herndon Va., cat. #10-040-CM) with 10% FBS and 40 U/mL IL-2. The primary T-cells were then washed twice with PBS to remove the IL-2.
Primary T cell stimulation and IL2 ELISA: Human primary T cells (100,000 cells per well) were pre-incubated with or without test compound in Yssel's medium for 1 hour at 37° C. Cells were then stimulated by transferring them to round-bottom 96-well plates pre-coated with 1 μg/ml αCD3 and 5 μg/ml αCD28. For counter assay, cells were instead stimulated by adding 8× stock solutions of PMA and ionomycin in Yssels (for final concentrations of 0.5 ng/ml PMA and 0.1 uM ionomycin, both from Calbiochem). Cells were incubated at 37° C. for 24 hours before 100 μL supernatants were harvested for quantification of IL-2 by ELISA using Human IL-2 Duoset ELISA Kit from R and D Systems, Cat. # DY202E.

Compound	IC50 (T-cell) [µM]	IC50 [µM]
CN1C(C)(C)CC(Nc2nc(Nc3ccc(F)c(-n4nn[nH]c4=O)c3)ncc2F)CC1(C)C [I-1, 5-fluoro-n2-{4-fluoro-[3-(4-h)-1,2,3,4-tetrazol-5-one-1-yl]}phenyl-n4-(1,2,2,6,6-pentamethylpiperidin-4-yl)-2,4-pyrimidinediamine]	3 to 25	
CC1(C)CC(Nc2nc(Nc3ccc(F)c(-n4nn[nH]c4=O)c3)ncc2F)CC(C)(C)N1 [I-2, 5-fluoro-n2-{4-fluoro-[3-(4-h)-1,2,3,4-tetrazol-5-one-1-yl]}phenyl-n4-(2,2,6,6-tetramethylpiperidin-4-yl)-2,4-pyrimidinediamine]	> 25	
CN1C(C)(C)CC(Nc2nc(Nc3ccc(F)c(-n4nnn(C)c4=O)c3)ncc2F)CC1(C)C [I-3, 5-fluoro-n2-{4-fluoro-[3-(4-methyl)-1,2,3,4-tetrazol-5-one-1-yl]}phenyl-n4-(1,2,2,6,6-pentamethylpiperidin-4-yl)-2,4-pyrimidinediamine]	< 0.5	
Cn1nnn(-c2cc(Nc3ncc(F)c(NC4CC(C)(C)NC(C)(C)C4)n3)ccc2F)c1=O [I-4]	< 0.5	
CC(C)n1nnn(-c2cc(Nc3ncc(F)c(NC4CC(C)(C)N(C)C(C)(C)C4)n3)ccc2F)c1=O [I-5, 5-fluoro-n2-{4-fluoro-[3-(4-isopropyl)-1,2,3,4-tetrazol-5-one-1-yl]}phenyl-n4-(1,2,2,6,6-pentamethylpiperidin-4-yl)-2,4-pyrimidinediamine]	0.51 to 2.99	
CC(C)n1nnn(-c2cc(Nc3ncc(F)c(NC4CC(C)(C)NC(C)(C)C4)n3)ccc2F)c1=O [I-6]	0.51 to 2.99	
CC1(C)CC(Nc2nc(Nc3ccc(F)c(-n4nnn(CCF)c4=O)c3)ncc2F)CC(C)(C)N1 [I-7, 5-fluoro-n2-{4-fluoro-3-[4-(2-fluoroethyl)-1,2,3,4-tetrazol-5-one-1-yl]}phenyl-n4-(2,2,6,6-tetramethylpiperidin-4-yl)-2,4-pyrimidinediamine]		0.51 to 2.99
Cc1ccc(Nc2ncc(F)c(NC3CC(C)(C)N(C)C(C)(C)C3)n2)cc1-n1nnn(C)c1=O [I-8, 5-fluoro-n2-{4-methyl-[3-(4-methyl)-1,2,3,4-tetrazol-5-one-1-yl]}phenyl-n4-(1,2,2,6,6-pentamethylpiperidin-4-yl)-2,4-pyrimidinediamine]	< 0.5	
Cc1ccc(Nc2ncc(F)c(NC3CC(C)(C)NC(C)(C)C3)n2)cc1-n1nnn(C)c1=O [I-9, 5-fluoro-n2-{4-methyl-[3-(4-methyl)-1,2,3,4-tetrazol-5-one-1-yl]}phenyl-n4-(2,2,6,6-tetramethylpiperidin-4-yl)-2,4-pyrimidinediamine]	< 0.5	
CC(C)Oc1ccc(Nc2ncc(F)c(NC3CC(C)(C)N(C)C(C)(C)C3)n2)cc1-n1nnn(C)c1=O [I-10, 5-fluoro-n2-{4-isopropoxy-[3-(4-methyl)-1,2,3,4-tetrazol-5-one-1-yl]}phenyl-n4-(1,2,2,6,6-pentamethylpiperidin-4-yl)-2,4-pyrimidinediamine]		< 0.5
CC(C)Oc1ccc(Nc2ncc(F)c(NC3CC(C)(C)NC(C)(C)C3)n2)cc1-n1nnn(C)c1=O [I-11, 5-fluoro-n2-{4-isopropoxy-[3-(4-methyl)-1,2,3,4-tetrazol-5-one-1-yl]}phenyl-n4-(2,2,6,6-tetramethylpiperidin-4-yl)-2,4-pyrimidinediamine]		< 0.5
CN1C(C)(C)CC(Nc2nc(Nc3cccc(-n4nnn(C)c4=O)c3)ncc2F)CC1(C)C [I-12, 5-fluoro-n2-[3-(4-methyl)-1,2,3,4-tetrazol-5-one-1-yl]phenyl-n4-(1,2,2,6,6-pentamethylpiperidin-4-yl)-2,4-pyrimidinediamine]	0.51 to 2.99	
Cn1nnn(-c2cccc(Nc3ncc(F)c(NC4CC(C)(C)NC(C)(C)C4)n3)c2)c1=O [I-13]	0.51 to 2.99	
Cn1nnn(-c2cc(Nc3ncc(F)c(NC4CC(C)(C)NC(C)(C)C4)n3)c(F)cc2C2CC2)c1=O [I-14]	< 0.5	
Cn1nnn(-c2cc(Nc3ncc(C#N)c(NC4CC(C)(C)NC(C)(C)C4)n3)c(F)cc2C2CC2)c1=O [I-15, 5-cyano-N2-{4-cyclopropyl-6-fluoro[3-(4-methyl)-1,2,3,4-tetrazol-5-one-1-yl]}phenyl-N4-(2,2,6,6-tetramethylpiperidin-4-yl)-2,4-pyrimidineamine]	< 0.5	
CN1C(C)(C)CC(Nc2nc(Nc3cc(-n4nnn(C)c4=O)c(C4CC4)cc3F)ncc2F)CC1(C)C [I-16, N2-{4-cyclopropyl-6-fluoro-[3-(4-methyl)-1,2,3,4-tetrazol-5-one-1-yl]}phenyl-5-fluoro-N4-(1,2,2,6,6-pentamethylpiperidin-4-yl)-2,4-pyrimidineamine]	< 0.5	
CN1C(C)(C)CC(Nc2nc(Nc3cc(-n4nnn(C)c4=O)c(C4CC4)cc3F)ncc2C#N)CC1(C)C [I-17, 5-cyano-N2-{4-cyclopropyl-6-fluoro-[3-(4-methyl)-1,2,3,4-tetrazol-5-one-1-yl]}phenyl-N4-(1,2,2,6,6-pentamethylpiperidin-4-yl)-2,4-pyrimidinediamine]	< 0.5	
CN1C(C)(C)CC(Nc2nc(Nc3ccc(OC(C)(C)C(F)(F)F)c(-n4nnn(C)c4=O)c3)ncc2F)CC1(C)C [I-18, 1-(2-(1,1,1-trifluoro-2-methylpropan-2-yloxy)-5-(4-(1,2,2,6,6-pentamethylpiperidin-4-ylamino)-5-fluoropyrimidin-2-ylamino)phenyl)-4-methyl-1H-tetrazol-5(4H)-one]	< 0.5	
Cn1nnn(-c2cc(Nc3ncc(F)c(NC4CC(C)(C)NC(C)(C)C4)n3)ccc2OC(C)(C)C(F)(F)F)c1=O [I-19, 1-(2-(1,1,1-trifluoro-2-methylpropan-2-yloxy)-5-(4-(2,2,6,6-tetramethylpiperidin-4-ylamino)-5-fluoropyrimidin-2-ylamino)phenyl)-4-methyl-1H-tetrazol-5(4H)-one]	< 0.5	
CN1C(C)(C)CC(Nc2nc(Nc3ccc(OC4COC4)c(-n4nnn(C)c4=O)c3)ncc2F)CC1(C)C [I-20, 1-(5-(4-(1,2,2,6,6-pentamethylpiperidin-4-ylamino)-5fluoropyrimidine-2-ylamino)-2-(oxetan-3-yloxy)phenyl)-4-methyl-1H-tetrazol-5(4H)-one]	< 0.5	
Cn1nnn(-c2cc(Nc3ncc(F)c(NC4CC(C)(C)NC(C)(C)C4)n3)ccc2OC2COC2)c1=O [I-21, 1-(5-(4-(2,2,6,6-gtetramethylpiperidin-4-ylamino)-5-fluoropyrimidin-2-ylamino)-2-(oxetan-3-yloxy)phenyl)-4-methyl-1H-tetrazol-5(4H)-one]	< 0.5	
CN1C(C)(C)CC(Nc2nc(Nc3cc(F)cc(-n4nnn(C)c4=O)c3)ncc2F)CC1(C)C [I-22, 1-(3-(4-(1,2,2,6,6-pentamethylpiperidin-4-ylamion)-5fluoropyrimidin-2-ylamino)-5-fluorophenyl)-4-methyl-1H-tetrazol-5(4H)-one]		< 0.5
Cn1nnn(-c2cc(F)cc(Nc3ncc(F)c(NC4CC(C)(C)NC(C)(C)C4)n3)c2)c1=O [I-23, 1-(3-(4-(2,2,6,6-tetramethylpiperidin-4-ylamino)-5-fluoropyrimidin-2-ylamino)-5-fluorophenyl)-4-methyl-1H-tetrazol-5(4H)-one]	< 0.5	
CN1C(C)(C)CC(Nc2nc(Nc3cc(OC4COC4)cc(-n4nnn(C)c4=O)c3)ncc2F)CC1(C)C [I-24, 1-(3-(4-(1,2,2,6,6-pentamethylpiperidin-4-ylamino)-5-fluoropyrimidin-2-ylamino)-5-(oxetan-3-yloxy)phenyl)-4-methyl-1H-tetrazol-5(4H)-one]	< 0.5	
Cn1nnn(-c2cc(Nc3ncc(F)c(NC4CC(C)(C)NC(C)(C)C4)n3)cc(OC3COC3)c2)c1=O [I-25, 1-(3-(4-(2,2,6,6-tetramethylpiperidin-4-ylamino)-5-fluoropyrimidin-2-ylamino)-5-(oxetan-3-yloxy)phenyl)-4-methyl-1H-tetrazol-5(4H)-one]	< 0.5	
CN1C(C)(C)CC(Nc2nc(Nc3ccc(OC4CCOCC4)c(-n4nnn(C)c4=O)c3)ncc2F)CC1(C)C [I-26]	< 0.5	
Cn1nnn(-c2cc(Nc3ncc(F)c(NC4CC(C)(C)NC(C)(C)C4)n3)ccc2OC2CCOCC2)c1=O [I-27, N2-{4-(tetrahydropyran-4-yloxy)-[3-(4-methyl)-1,2,3,4-tetrazol-5-one-1-yl]}phenyl-5-fluoro-N4-(2,2,6,6-tetramethylpyridin-4-yl)-2,4-pyrimidinediamine]	< 0.5	
Cn1nnn(-c2cc(Nc3ncc(F)c(NC4CC(C)(C)NC(C)(C)C4)n3)ccc2OCC2(C)COC2)c1=O [I-28, 5-fluoro-N2-{4-(3-methyloxetan-3-yl)methody-3-[(4-methyl)-1,2,3,4-tetrazol-5-one-1-yl]}phenyl-N4-(2,2,6,6-tetramethylpiperidin-4-yl)-2,4pyrimidinediamine]	< 0.5	
CN1C(C)(C)CC(Nc2nc(Nc3ccc(Cl)c(-n4nnn(C)c4=O)c3)ncc2F)CC1(C)C [I-29, N2-{4-chloro-[3-(4-methyl)-1,2,3,4-tetrazol-5-one-1-yl]}phenyl-5-fluoro-N4-(1,2,2,6,6-pentamethylpiperidin-4-yl)-2,4-pyrimidinediamine]	< 0.5	

— US9732070B2, “Protein kinase C inhibitors and uses thereof” (Rigel Pharmaceuticals, Inc., priority 2009, dated 2017)
